Experiments:
Jack Frost Blight = test: Orchard #6 field treatment of blight-infected apple trees; format: in vivo
Procedure: Apple trees at Orchard #6 infected with Jack Frost Blight (FIGS. 9A, 9B and 9C) were treated with 2 ppm (FIG. 10A), 5 ppm, 10 ppm (FIG. 10B) or 25 ppm (FIG. 10C) of ClO2. While blight was easily found in untreated areas of the block, only 2 strikes were found in the 2 ppm test area, no strikes were found in the 5 ppm area, 1 strike was found in the 10 ppm area, and 1 strike was found at the very end of the 25 ppm area (it is unclear whether that part of the area was actually treated or treated fully).

[1] = test system: Red Blotch Virus (Grablovirus or GRBav); test: Field trials on grape vines infected with Red Blotch Virus; format: in vivo
Procedure: Field trials were performed on grape vines infected with Red Blotch Virus (Grablovirus or GRBav).
Grape vines were treated with (36% 36% hydrochloric acid, 8% 60% active HEDPA, 0.5% 120 grain vinegar, 0.5% 85% phosphoric acid, and 55% water, all by weight) and (3.1% 60% active HEDPA, 1.6% 45% active potassium hydroxide, […], all by weight). ClO2 was made using a CH2O-ClO2 generator, and applied using an orchard sprayer. 200 gallons of treated water was applied per acre, and the treated water contained 15 ppm ClO2. The air temperature was 70° F.-90° F. on the days of application.
Half of the treated rows were pruned with shears dipped in water containing 30 to 50 ppm chlorine bleach.

[2] = test system: Erwinia amylovora ("Fire Blight"); test: Field experiment in apple and pear tree orchard infected with Fire Blight; format: in vivo
Procedure: An apple and pear tree orchard infected with Erwinia amylovora (“Fire Blight”) was treated with 2 ppm, 5 ppm, 10 ppm, and 25 ppm ClO2 as described herein. Previous unsuccessful treatments included foliar medications and metal (Cu) suspended in oil, and Tetramyacin and Oxytetracycline application. These are very expensive medication option(s) that are becoming obsolete w/resistance.
The treatment protocol at this orchard included a three step approach: a) irrigation water; b) topical application before first bloom (e.g., begin topical treatment before primary bloom event and all the way through second blooming event); and c) ooze treatment/vector suppression. Given the timing of this trial, only step C is relevant.
Trees were sprayed when the temperature reached a minimum of 50° F. The temperature for treating bacterial ooze should be between 75-90° F., with highest “safe” rates of ClO2 used to prevent spread through insect and pollination activity. The residual phosphorus (from phosphonates) should have lasting protection properties even days after a topical application.
Rows were marked based on the concentration of ClO2 to be applied. Each concentration rate was applied slowly over four rows of trees. Two rows of trees were left untreated between each of the treated rows to prevent drift. After an application at a particular concentration was complete, the pump speed was increased or decreased to adjust the ClO2 concentration for the next application.

[3] = test system: Erwinia amylovora ("Fire Blight"); conditions: before the ClO2 trial; cited from earlier work

Molecule	blight strikes found in test area (Jack Frost Blight; 2 ppm ClO2 test area)	blight strikes found in test area (Jack Frost Blight; 5 ppm ClO2 area)	blight strikes found in test area (Jack Frost Blight; 10 ppm ClO2 area)	blight strikes found in test area (Jack Frost Blight; 25 ppm ClO2 area, very end (unclear whether treated fully))	less GRBav than the untreated control area ([1]; 15 ppm ClO2, 200 gallons per acre, pruned with ClO2-sanitized shears)	less virus than the untreated control area ([1]; 15 ppm ClO2, 200 gallons per acre, pruned with shears dipped in chlorine bleach)	reduction in the amount of virus on the grape plants ([1]; 15 ppm ClO2, both pruning groups)	new blight strikes observed ([2]; 2 ppm zone)	new blight found ([2]; remaining test zones (5 ppm, 10 ppm, 25 ppm))	ClO2 concentration effective for disease control ([2]; topical spray on infected trees)	outcome of previous treatments of the orchard [3]
[O][Cl+][O-] [ClO2, chlorine dioxide]	2 strikes	no strikes	1 strike	1 strike	approximately 85%	approximately 75%	75-85%	One	no new blight	≥ 5 ppm	–
Tetramyacin	–	–	–	–	–	–	–	–	–	–	unsuccessful

— patent US20210161146A1, “COMPOSITIONS AND METHODS FOR INHIBITING PATHOGENS ON PLANTS” (CH2O INCORPORATED, priority 2018, published 2021)
